Columns and labels:
B16-F10 melanoma [1] = test: Inhibition of lung metastasis of B16-F10 melanoma in mice, intraperitoneal suspension (Examples 1 and 2); format: in vivo, male C57BL/6 mice; settings: for Number of metastatic nodules mean ± standard error / Inhibition of metastasis: day 1 to 27, day 42; for Number of metastatic nodules mean ± standard error: lung surface; for Inhibition of metastasis: lung
Procedure: (§1) Experimental animal: male C57BL/6 mice (6 weeks old)
(§2) Tumor cell line: B16-F10 melanoma
Test method: Mice were given 4×10^5 B16-F10 melanoma cells in 0.05 ml of serum-free RPMI 1640 medium in the foot pad of the left hind leg. […] During this period, the size of the inoculated tumor was observed macroscopically. On day 28, tumor-bearing legs were cut from the mice and on day 42 the mice were sacrificed. The number of metastatic nodules formed on the lung surface was counted for each mouse. 10 Animals were used per each group
Compounds G and H were tested for the inhibitory effect on tumor metastasis.

B16-F10 melanoma cells = test: L-PHA-sensitivity of cultured tumor cells (Example 4); format: cell-based; settings: Mus musculus, 10 μl of 50 μg/ml test compound in DMSO added on day 1 to 2 ml medium, L-PHA 50 μl of 50 μg/ml on day 2, count day 4, control 42.0, read-out: Growth inhibition by L-PHA
Procedure: Tumor cell culture: B16-F10 melanoma cells were incubated in RPMI 1640 medium containing 10% fetal bovine serum and antibiotics at 37° C.
Test method: B16-F10 cells (5×10^4) in 2 ml of the medium were seeded onto a plastic dish and incubation was started. On day 1, 10 μl of dimethylsulfoxide (control group) or a test compound suspended in 10 μl of dimethylsulfoxide at a concentration of 50 μg/ml (test group) was added. On day 2, 50 μl each of water was added to a half of each of the control group and the test group, and 50 μl of 50 μg/ml L-PHA solution in water was added to a remaining half. On day 4, the number of cells was counted in L-PHA-treated and untreated groups and % growth inhibition by L-PHA was calculated according to the following formula:
% Growth Inhibition=(1-N/N0)×100
in which N denotes a number of cells in the presence of L-PHA and N0 denotes a number of cells in the absence thereof.

B16-F10 melanoma [2] = test: Inhibition of tumor metastasis to lung by intravenous oily emulsions (Example 8); format: in vivo, male C57BL/6 mice; settings: oily emulsion i.v., 9 times every three days
Procedure: Male C57BL/6 mice (6 weeks old) were given 4×10^5 B16-F10 melanoma cells in 0.05 ml of serum-free RPMI 1640 medium in the foot pad of the left hind leg. […] The tumor-bearing legs were cut on day 27 and the mice were sacrificed on day 41. The number of metastatic nodules formed in the lung was counted for each mouse. 10 Animals were used per each group. % Inhibition of tumor metastasis to lung was calculated on the basis of the following formula.
% Inhibition of tumor metastasis to lung=(1-M/M0)×100

B16-F10 melanoma [3] = test: Inhibition of lung metastasis of B16-F10 melanoma in mice, intraperitoneal olive oil solution (Example 3); format: in vivo, male C57BL/6 mice
Procedure: as §1, §2
Compounds B, D, E and F were tested for the inhibitory effect on tumor metastasis using the same experimental animal and tumor cell line as in Example 1. Test method: Mice were given 4×10^5 B16-F10 melanoma cells in 0.05 ml of serum-free RPMI 1640 medium in the foot pad of the left hind leg. A solution of Compounds B, D, E or F (0.1 or 0.2 mg) in 0.2 ml of olive oil was administered intraperitoneally every other day from day 1 to day 27 after inoculation of the melanoma cells. During this period, the size of the inoculated tumors was observed macroscopically. On day 28, the tumor-bearing legs were cut from the mice and on day 42 the mice were sacrificed. The number of metastatic nodules formed on the lung surface was counted for each mouse. 10 Animals were used per each group except for control group wherein 20 animals were used.

SMILES | Inhibitory effect on tumor metastasis (in words) (B16-F10 melanoma [1]; Example 2, i.p. suspension, same method as Example 1) | Number of metastatic nodules mean ± standard error (B16-F10 melanoma [1]; 5 mg/kg i.p. every other day) | Inhibition of metastasis (B16-F10 melanoma [1]; 5 mg/kg i.p. every other day) [%] | Number of metastatic nodules mean ± standard error (B16-F10 melanoma [1]; 10 mg/kg i.p. every other day) | Inhibition of metastasis (B16-F10 melanoma [1]; 10 mg/kg i.p. every other day) [%] | inhibition at 50 µg/mL (stock) (B16-F10 melanoma cells) [%] | Inhibition of tumor metastasis to lung (B16-F10 melanoma [2]; 0.3 mg/kg) [%] | Inhibition of tumor metastasis to lung (B16-F10 melanoma [2]; 0.8 mg/kg) [%] | Inhibition of tumor metastasis to lung (B16-F10 melanoma [2]; 2.0 mg/kg) [%] | Growth of the inoculated tumors (in words) (B16-F10 melanoma [3]; 10 mg/Kg i.p., compared with Control) | Number of metastatic nodules mean ± standard error (B16-F10 melanoma [3]; 10 mg/kg i.p. in olive oil every other day, day 1 to 27, lung surface, day 42) | Inhibition of metastasis (B16-F10 melanoma [3]; 10 mg/kg i.p. in olive oil every other day, day 1 to 27, lung, day 42) [%]
CC(C)=CCC/C(C)=C/CC/C(C)=C/CC/C(C)=C/CC/C(C)=C/CC/C(C)=C/CC/C(C)=C/CC/C(C)=C/CC/C(C)=C/CCC(C)CCOP(=O)(O)O (centres unmarked) [Compound G] | essentially the same as that of Compound C | – | – | – | – | – | – | – | – | – | – | –
CC(C)=CCC/C(C)=C/CC/C(C)=C/CC/C(C)=C/CC/C(C)=C/CC/C(C)=C/CC/C(C)=C/CC/C(C)=C/CC/C(C)=C/CCC(C)CCOP(=O)(O)O (centres unmarked) [Compound C] | – | 1.2 ± 0.8 | 94 | 0 | 100 | 32.7 | 79 | 78 | 85 | – | – | –
CC(C)=CCC/C(C)=C/CC/C(C)=C/CC/C(C)=C/CC/C(C)=C/CC/C(C)=C/CC/C(C)=C/CC/C(C)=C/CC/C(C)=C/CCC(C)CCO (centres unmarked) [Compound B] | – | – | – | – | – | 36.6 | – | 54 | – | about the same as that of Control | 11.7 ± 6.2 | 63

Source: patent US5004735A, “Pharmaceutical compositions for the inhibition of tumor metastasis” (Nisshin Flour Milling Co., Ltd., priority 1988, dated 1991)
